# Measurements taken from article PMC9140012, “Epigenetic-Like Stimulation of Receptor Expression in SSTR2 Transfected HEK293 Cells as a New Therapeutic Strategy” (Cancers, 2022).
# Where “and” joins values, the source holds several entries; their conditions need not be identical. Identical values can stand only once.
# How the values were obtained:
# [1] = test system: Forskolin-stimulated cAMP production; design: method as in PMID 29599907; conditions: BON-1 and QGP-1 stimulated with 5-aza-dC and VPA; cited from earlier work
# SSTR2 in HEKsst2 cells [2] = test: Saturation binding of Lu-177-DOTATATE, HEKsst2; design: species or system murine; conditions: for Kd: excess DOTATATE for non-specific binding; for number of binding sites per cell: from Bmax
# Method: (§1) HEK293 cells were obtained from the German Resource Center for Biological Material (DSMZ, Braunschweig, Germany) and grown in Dulbecco’s modified Eagle´s medium supplemented with 10% fetal calf serum (FCS) in a humidified atmosphere containing 5% CO2. Cells were transfected with plasmid, encoding murine HA-tagged SSTR2 receptors using lipofectamine according to the manufacturing instructions (Thermofisher, Darmstadt, Germany). Stable transfectants were selected in the presence of 500 µg/mL G-418 and characterized using radioligand binding assays, Western blot analyses, surface ELISA assays and immunocytochemistry as described previously. Non-transfected HEK293 cells were maintained under equal conditions as HEKsst2 except for the addition of G-418. In the following, HEK293 cells and SSTR2 transfected HEK293 cells are termed as HEK and HEKsst2, respectively. The human prostate carcinoma cell line PC3 (ATCC®, Manassas, VA, USA) was cultured in a RPMI medium with 10% (v/v) FCS and 1% (v/v) non-essential amino acids (NEA). […] The culture medium of each cell line was renewed every 2–3 days. Via a PCR test, each cell line is proven to be free of mycoplasmas.
# Excess DOTATATE (3.5 × 10^−3–7.03 nmol) was used to block receptors and determine the non-specific binding. The uptake data (triplicates per each condition) were fitted to a one-site binding model in GraphPad Prism 9.0 to determine the number of binding sites (Bmax) and the dissociation constant (Kd).
# To determine the Bmax values and the Kd, the GraphPad Prism 9.0 software was used. Confidence Intervals (CI) express a 95% likelihood of the nonlinear fit.
# PC3 cells [3] = test: Intracellular Lu-177-DOTATATE uptake, PC3; format: cell-based, human; conditions: 50 kBq
# Method: HEK293 cells were obtained from the German Resource Center for Biological Material (DSMZ, Braunschweig, Germany) and grown in Dulbecco’s modified Eagle´s medium supplemented with 10% fetal calf serum (FCS) in a humidified atmosphere containing 5% CO2. Cells were transfected with plasmid, encoding murine HA-tagged SSTR2 receptors using lipofectamine according to the manufacturing instructions (Thermofisher, Darmstadt, Germany). Stable transfectants were selected in the presence of 500 µg/mL G-418 and characterized using radioligand binding assays, Western blot analyses, surface ELISA assays and immunocytochemistry as described previously. Non-transfected HEK293 cells were maintained under equal conditions as HEKsst2 except for the addition of G-418. In the following, HEK293 cells and SSTR2 transfected HEK293 cells are termed as HEK and HEKsst2, respectively. […]
# After incubation times, the supernatant of the well was removed and the cells were washed twice with PBS (phosphate buffered saline) at 4 °C. […] The activity of all fractions was measured using a Gamma-Counter (Cobra II, Autogamma, Packard®, Canberra Company, Ruesselsheim, Germany). The intracellular activity was expressed as a percentage of the total activity normalized to the cell count of 2.0 × 10^5. […]
# SSTR2 in HEKsst2 cells [4] = test: Intracellular Lu-177-DOTATATE uptake, HEKsst2; format: cell-based, murine; conditions: for Lu-177-DOTATATE uptake (intracellular activity, % of total activity normalized to 2.0 × 10^5 cells): 37 °C; for Lu-177-DOTATATE uptake (intracellular activity, % of total activity normalized to 2.0 × 10^5 cells) / increase of Lu-177-DOTATATE uptake by a factor: 50 kBq; for increase of Lu-177-DOTATATE uptake by a factor: stimulated (5.0 µM 5-aza-dC, 1.85 mM VPA) vs unstimulated
# Method: as §1
# After incubation times, the supernatant of the well was removed and the cells were washed twice with PBS (phosphate buffered saline) at 4 °C. Supernatant and washed solution make up the non-bound fraction of the radioligand. The cell layers were lysed with 1 mL 0.1 M NaOH for 10 min at 37 °C. These fractions correspond to the intracellular fraction of radioligand. The activity of all fractions was measured using a Gamma-Counter (Cobra II, Autogamma, Packard®, Canberra Company, Ruesselsheim, Germany). The intracellular activity was expressed as a percentage of the total activity normalized to the cell count of 2.0 × 10^5.
# To examine the statistical significance, an unpaired student’s t-test was used. A difference between two independent samples is significant if the probability of error p ≤ 0.05. For the statistical evaluation, MS Office Excel was used.
# PC3 cells [5] = test: Radiotoxic dose-response of Lu-177-DOTATATE (CFA), unstimulated PC3; format: cell-based, human; conditions: up to 0.5 MBq/mL, 24 h, compared with HEKsst2
# Method: (§2) To show the dose-response relationship, the unstimulated HEKsst2 and PC3 cells were irradiated with absorbed doses of 0.1–7.5 Gy in an X-ray tube.
# (§3) To determine the radiosensitivity and radiotoxicity, the clonogene cell survival was analyzed. Colony formation assays were performed as described earlier. The following steps have been done for each of the treatment procedures. Briefly, after detaching the treated cells, an aliquot of the cell suspension per dose point was distributed in T25 culture flasks for the colony formation test and is placed in an incubator for 7 (HEKsst2) or 10 days (PC3). To stop colony formation, the cells were fixed with ethanol 80% (v/v) followed by staining with crystal violet solution. The colony counting was carried out under a microscope (25× magnification). Colonies of more than 50 cells were scored as survivors. The plating efficiency (PE) and the survival rate (survival fraction SF) were calculated for irradiated and unirradiated cells based on the number of seeded cells.
# PC3 cells [6] = test: Radiotoxicity of Lu-177-DOTATATE on unstimulated and stimulated PC3 (CFA); format: cell-based, human; conditions: for cell survival of stimulated vs unstimulated PC3: 5-aza-dC and VPA
# Method: (§4) The stimulation process followed the protocol described above.
# as §3
# [7] = test system: cell lines HEKsst2 and PC3; test: A80/A60 of Lu-177-DOTATATE by colony formation assay, HEKsst2 and PC3; format: cell-based; conditions: 24 h incubation, value used for both HEKsst2 and PC3
# Method: as §2, §4, §3
# HEKsst2 cells [8] = test: Radiotoxic dose-response of Lu-177-DOTATATE (CFA), unstimulated HEKsst2; format: cell-based
# Method: as §2, §3
# HEKsst2 cells [9] = test: Radiotoxicity of Lu-177-DOTATATE on unstimulated and stimulated HEKsst2 (CFA); format: cell-based; conditions: for Survival Fraction: 24 h
# Method: as §4, §3
substance,measurement,setting,value
octreotide,inhibition of the Forskolin-stimulated cAMP production,[1],inhibition of the Forskolin-stimulated cAMP production
"(DOTA)-[Tyr3, Thr8]-octreotide [Lu-177-DOTATATE, SSTR2-targeted radioligand, Lu-177 labelled (DOTA)-[Tyr3, Thr8]-octreotide]",Bmax,"SSTR2 in HEKsst2 cells [2]; HEKsst2 stimulated with 5-aza-dC and VPA, 1 h, 37 °C, one-site model, specific binding, 95% CI = 1.08 × 10^−9 to 1.62 × 10^−9 nmol",1.32e-09 nmol
same,Kd,"SSTR2 in HEKsst2 cells [2]; HEKsst2 stimulated with 5-aza-dC and VPA, 1 h, 37 °C, one-site model",4.88 nM
same,number of binding sites per cell,SSTR2 in HEKsst2 cells [2]; HEKsst2 stimulated with 5-aza-dC and VPA,7.95 × 10^5
same,maximum total binding,"SSTR2 in HEKsst2 cells [2]; almost reached at 0.5 MBq/mL Lu-177-DOTATATE, HEKsst2","17 kBq/500,000 cells"
same,Bmax,"SSTR2 in HEKsst2 cells [2]; as restated in the discussion (Figure 3), unstimulated HEKsst2",4.4 × 10^−10 nmol/cell
same,Bmax as bound activity,SSTR2 in HEKsst2 cells [2]; corresponds to Bmax = 4.4 × 10^−10 nmol/cell,"15.5 kBq/500,000 cells"
same,Bmax,"SSTR2 in HEKsst2 cells [2]; unstimulated HEKsst2, 1 h, 37 °C, one-site model, specific binding, 95% CI = 4.15 × 10^−10 to 4.58 × 10^−10 nmol",4.36e-10 nmol
same,Kd,"SSTR2 in HEKsst2 cells [2]; unstimulated HEKsst2, 1 h, 37 °C, one-site model",2.1 nM
same,number of binding sites per cell,SSTR2 in HEKsst2 cells [2]; unstimulated HEKsst2,2.63 × 10^5
same,"number of binding sites per cell, unstimulated compared to stimulated",SSTR2 in HEKsst2 cells [2]; unstimulated vs stimulated HEKsst2,three-fold lower
same,Lu-177-DOTATATE uptake values compared to unstimulated cells,"PC3 cells [3]; stimulated PC3, 1 h, p = 0.4935",marginal increase
same,Lu-177-DOTATATE uptake values compared to unstimulated cells,"PC3 cells [3]; stimulated PC3, 24 h, p = 0.3694",marginal increase
same,"Lu-177-DOTATATE uptake (intracellular activity, % of total activity normalized to 2.0 × 10^5 cells)","SSTR2 in HEKsst2 cells [4]; 1 h, cells stimulated 5 days with 5.0 µM 5-aza-dC and 1.85 mM VPA, p = 0.0142 vs unstimulated, gamma counter",50.2%
same,"Lu-177-DOTATATE uptake (intracellular activity, % of total activity normalized to 2.0 × 10^5 cells)","SSTR2 in HEKsst2 cells [4]; 1 h, unstimulated cells",1.8%
same,increase in Lu-177-DOTATATE uptake vs unstimulated,"SSTR2 in HEKsst2 cells [4]; 1 h, 0.1 µM 5-aza-dC (and 1.85 mM VPA), p = 0.060","also shows stimulatory effects, no significant difference was found"
same,increase in Lu-177-DOTATATE uptake vs unstimulated,"SSTR2 in HEKsst2 cells [4]; 1 h, 5.0 µM 5-aza-dC and 1.85 mM VPA, p < 0.05",2800%
same,"Lu-177-DOTATATE uptake (intracellular activity, % of total activity normalized to 2.0 × 10^5 cells)","SSTR2 in HEKsst2 cells [4]; 24 h, cells stimulated with 5.0 µM 5-aza-dC and 1.85 mM VPA, p = 0.0090 vs unstimulated",36.2%
same,"Lu-177-DOTATATE uptake (intracellular activity, % of total activity normalized to 2.0 × 10^5 cells)","SSTR2 in HEKsst2 cells [4]; 24 h, unstimulated cells",5.6%
same,increase in Lu-177-DOTATATE uptake vs unstimulated,"SSTR2 in HEKsst2 cells [4]; 24 h, 3.9 µM 5-aza-dC and 1.85 mM VPA, p < 0.05",≈ 640%
same,increase in Lu-177-DOTATATE uptake vs unstimulated,"SSTR2 in HEKsst2 cells [4]; 24 h, 5.0 µM 5-aza-dC and 1.85 mM VPA, p < 0.05",≈ 640%
same,increase of Lu-177-DOTATATE uptake by a factor,"SSTR2 in HEKsst2 cells [4]; 1 h, p = 0.0142",28
same,increase of Lu-177-DOTATATE uptake by a factor,"SSTR2 in HEKsst2 cells [4]; 24 h, p = 0.0090",6.5
same,decrease of the survival with Lu-177-DOTATATE concentration,PC3 cells [5],much less pronounced
same,cell survival of stimulated vs unstimulated PC3,"PC3 cells [6]; 57.5 kBq/mL Lu-177-DOTATATE, not statistically significant, p = 0.5482",higher SF fractions
same,cell survival of stimulated vs unstimulated PC3,"PC3 cells [6]; 136 kBq/mL Lu-177-DOTATATE, p = 0.5078","only a slight, statistically insignificant difference"
same,radiotoxic effects when stimulated with 5-aza-dC and VPA,"PC3 cells [6]; PC3, Lu-177-DOTATATE 57.5 and 136 kBq/mL",no increase regarding the radiotoxic effects
same,A60,[7]; activity equivalent to X-ray D60 (1.2 Gy),136 kBq/mL
same,A80,[7]; activity equivalent to X-ray D80 (0.6 Gy),57.5 kBq/mL
same,radioactivity concentration at which all SST2 receptors are engaged (assumed),"HEKsst2 cells [8]; HEKsst2, equal to approximately 0.34 ng/500,000 cells",0.5 MBq/mL
same,decrease of SF values with Lu-177-DOTATATE concentration,"HEKsst2 cells [8]; unstimulated HEKsst2, 0.05-5 MBq/mL, 24 h",strong dose-dependent decrease of the SF values until the receptors seemed to be saturated
same,Survival Fraction,"HEKsst2 cells [9]; 57.5 kBq/mL Lu-177-DOTATATE, non-stimulated",0.54
same,Survival Fraction,"HEKsst2 cells [9]; 57.5 kBq/mL Lu-177-DOTATATE, stimulated with 5-aza-dC 0.25 µM and VPA 0.6 mM, normalized to SF = 1, p = 0.1424 vs unstimulated",0.27
same,"factor of increase of radiotoxic effects, stimulated vs unstimulated","HEKsst2 cells [9]; 57.5 kBq/mL, 5-aza-dC 0.25 µM and VPA 0.6 mM",2
same,Survival Fraction,"HEKsst2 cells [9]; 136 kBq/mL Lu-177-DOTATATE, stimulated with 5-aza-dC 0.46 µM and VPA 1.0 mM, normalized to SF = 1, p = 0.0029 vs unstimulated",0.09 and 0.1
same,Survival Fraction,"HEKsst2 cells [9]; 136 kBq/mL Lu-177-DOTATATE, unstimulated",0.42
same,"factor of lower survival, stimulated vs unstimulated (radiotoxic effect increase)","HEKsst2 cells [9]; 136 kBq/mL, 5-aza-dC 0.46 µM and VPA 1.0 mM",4
